# Results taken from patent US20030166645A1, “Novel nitrofuran-containing heterocyclic compounds and uses thereof” (priority 2001, published 2003).
# Where two headings read alike, the source gives them in different places.
# What was measured:
# E coli = assay: Microdilution antimicrobial susceptibility test (MIC); assay type: cell-based; settings: broth microdilution, 18-24 h, MIC = 90% inhibition of growth; read-out: MIC E coli MIC2
# E coli (ImpA) = assay: as above; assay type: cell-based; settings: broth microdilution, 18-24 h, MIC = 90% inhibition of growth; read-out: MIC E coli (ImpA) MIC9
# Protocol: Microdilution Antimicrobial Susceptibility Test Assay
# Stock solutions of tested compounds were prepared in N,N-dimethylformamide (DMF) at a concentration of 5 mg/mL. Working solutions of the tested compounds were then prepared from the stock solutions, in Mueller-Hinton broth (MHB) with a starting concentration of 64 μg/mL.
# Bacterial inocula were prepared from overnight culture (i.e., one fresh colony from agar plate in 5 ml MHB; H. influenzae was grown in MHB with the addition of yeast extract, haematin, and NAD), centrifuged 2×5 min/3000 rpm (for S. pneumoniae and H. influenzae, 2×10 min/3000 rpm), and dispensed in 5 ml of fresh MHB each time, such that the bacterial suspension is diluted to obtain 100 colony forming units (cfu) in a microplate well (100 μl total volume).
# Microplate wells were filled with two-fold dilutions of test compound (50 Al), starting with 64 μg/ml. Wells were then filled with 50 μl of bacterial inoculum (final volume: 100 μl/well). The plates were incubated at 37° C. for 18-24 hours (S. pneumoniae was grown in a CO2-enriched atmosphere).
# S aureus = assay: as above; assay type: cell-based; settings: broth microdilution, 18-24 h, MIC = 90% inhibition of growth; read-out: MIC S aureus MIC2
# E faecalis = assay: as above; assay type: cell-based; settings: broth microdilution, 18-24 h, MIC = 90% inhibition of growth; read-out: MIC E faecalis MIC2
# S pneumoniae = assay: as above; assay type: cell-based; settings: broth microdilution, 18-24 h, CO2-enriched atmosphere, MIC = 90% inhibition of growth; read-out: MIC S pneumoniae MIC6
# M. catarrhalis = assay: as above; assay type: cell-based; settings: Moraxella catarrhalis; broth microdilution, 18-24 h, MIC = 90% inhibition of growth; read-out: MIC M. catarrhalis MIC2
# H influenzae = assay: as above; assay type: cell-based; settings: broth microdilution, 18-24 h, MIC = 90% inhibition of growth; read-out: MIC H influenzae MIC4
# S cerevisiae = assay: as above; assay type: cell-based; settings: broth microdilution, 18-24 h, MIC = 90% inhibition of growth; read-out: MIC S cerevisiae MIC7
# Clostridium perfringens = assay type: cell-based; settings: disk 200 μg, anaerobic, 24-48 h
# Clostridium sp. = assay type: cell-based; settings: disk 200 μg, anaerobic, 24-48 h
# Bacteroides fragilis [1] = assay type: cell-based; settings: Bacteroides fragilis; disk 200 μg; anaerobic, 24-48 h
# Peptostreptococcus sp = assay type: cell-based; settings: Peptostreptococcus sp (fresh abdominal aspirate); disk 200 μg; anaerobic, 24-48 h
# Bacteroides vulgatus = assay: Antimicrobial agar dilution test of anaerobic bacteria (MIC); assay type: cell-based; settings: 48 h
# Bacteroides fragilis [2] = assay: as above; assay type: cell-based; settings: 48 h
# [3] = test system: Bacteroides thetaiotaomicron; assay type: cell-based; settings: agar dilution, anaerobic, 48 h
# E. coli = assay: Systemic bacterial infection model, mice infected with E. coli
# S. aureus = assay: Systemic bacterial infection model, mice infected with S. aureus
smiles,measurement,setting,value
"Cn1c(S)nnc1-c1ccc([N+](=O)[O-])o1 [Compound 122, 5-[2-(5-Nitro)furyl]-4-methyl-4H-1,2,4-triazole-3-thiol]",MIC,E coli,4 µg/mL
same,MIC,E coli (ImpA),0.25 µg/mL
same,MIC,S aureus,2 µg/mL
same,MIC,E faecalis,2 µg/mL
same,MIC,S pneumoniae,4 µg/mL
same,MIC,M. catarrhalis,< 0.12 µg/mL
same,MIC,H influenzae,8 µg/mL
same,MIC,S cerevisiae,32 µg/mL
same,Inhibition zones,Clostridium perfringens; Clostridium perfringens (fresh wound isolate),30 mm
same,Inhibition zones,"Clostridium perfringens; Clostridium perfringens, diameter includes disk",36 mm*
same,Inhibition zones,Clostridium sp.; Clostridium sp. (first listed strain),20 mm
same,Inhibition zones,Clostridium sp.; Clostridium sp. (second listed strain),40 mm
same,Inhibition zones,Bacteroides fragilis [1],41 mm
same,Inhibition zones,Peptostreptococcus sp,15 mm
same,MIC Bacteroides vulgatus,Bacteroides vulgatus,< 0.125 µg/mL
same,MIC Bacteroides fragilis,Bacteroides fragilis [2]; first B. fragilis column,< 0.125 µg/mL
same,MIC Bacteroides fragilis,Bacteroides fragilis [2]; second B. fragilis column,< 0.125 µg/mL
same,MIC Bacteroides fragilis,Bacteroides fragilis [2]; third B. fragilis column,< 0.125 µg/mL
same,MIC Bacteroides thetaiotaomicron,[3],< 0.125 µg/mL
same,Survival (%),"E. coli; Study #3, 25 mg/kg IP QD × 3, 6 days observation",0%
same,Survival (%),"E. coli; Study #3, 50 mg/kg IP QD × 3, 6 days observation",60%
same,Survival (%),"E. coli; Study #3, 75 mg/kg IP QD × 3, 6 days observation",20%
same,Survival (%),"E. coli; Study #3, 100 mg/kg IP QD × 3, 6 days observation",0%
same,Survival (%),"S. aureus; Study #2, 25 mg/kg IP QD × 3, 6 days observation",0%
same,Survival (%),"S. aureus; Study #2, 50 mg/kg IP QD × 3, 6 days observation",30%
same,Survival (%),"S. aureus; Study #2, 75 mg/kg IP QD × 3, 6 days observation",10%
same,Survival (%),"S. aureus; Study #2, 100 mg/kg IP QD × 3, 6 days observation",0%
